# Test results reported in ChEMBL document CHEMBL3244075, “Synthesis and hypoglycemic activity of some substituted 2-arylthiazolo[3,2-a]pyridinium salts” (J Med Chem, 1978).
# Active and inactive are the calls of the source. The rule behind the calls is not given here.
# Tests used:
# Rattus norvegicus [1] = experiment: Hypoglycemic activity in 48 hrs-fasted rat assessed as change in blood glucose level at dose equivalent to 102 mg of free base/kg, po measured at 1 hr relative to control; format: functional
# Rattus norvegicus [2] = experiment: Hypoglycemic activity in 48 hrs-fasted rat assessed as change in blood glucose level at dose equivalent to 102 mg of free base/kg, po measured at 2 hrs relative to control; format: functional
# Rattus norvegicus [3] = experiment: Hypoglycemic activity in 48 hrs-fasted rat assessed as change in blood glucose level at dose equivalent to 102 mg of free base/kg, po measured at 3 hrs relative to control; format: functional
# Rattus norvegicus [4] = experiment: Hypoglycemic activity in 48 hrs-fasted rat assessed as change in blood glucose level at dose equivalent to 102 mg of free base/kg, po measured at 4 hrs relative to control; format: functional
# Rattus norvegicus [5] = experiment: Hypoglycemic activity in 48 hrs-fasted rat assessed as change in blood glucose level at dose equivalent to 102 mg of free base/kg, po measured at 5 hrs relative to control; format: functional
# Rattus norvegicus [6] = experiment: Hypoglycemic activity in 48 hrs-fasted rat assessed as change in blood glucose level at dose equivalent to 68 mg of free base/kg, po measured at 1 hr relative to control; format: functional
# Rattus norvegicus [7] = experiment: Hypoglycemic activity in 48 hrs-fasted rat assessed as change in blood glucose level at dose equivalent to 68 mg of free base/kg, po measured at 2 hrs relative to control; format: functional
# Rattus norvegicus [8] = experiment: Hypoglycemic activity in 48 hrs-fasted rat assessed as change in blood glucose level at dose equivalent to 68 mg of free base/kg, po measured at 3 hrs relative to control; format: functional
# Rattus norvegicus [9] = experiment: Hypoglycemic activity in 48 hrs-fasted rat assessed as change in blood glucose level at dose equivalent to 68 mg of free base/kg, po measured at 4 hrs relative to control; format: functional
# Rattus norvegicus [10] = experiment: Hypoglycemic activity in 48 hrs-fasted rat assessed as change in blood glucose level at dose equivalent to 68 mg of free base/kg, po measured at 5 hrs relative to control; format: functional
# Rattus norvegicus [11] = experiment: Toxicity in 48 hrs-fasted rat assessed as elevation in hepatic triglyceride level at dose equivalent to 102 mg of free base/kg, po relative to control; format: organism-based; details: in vivo
# Rattus norvegicus [12] = experiment: Toxicity in 48 hrs-fasted rat assessed as elevation in hepatic triglyceride level at dose equivalent to 34 mg of free base/kg, po relative to control; format: organism-based; details: in vivo
# Rattus norvegicus [13] = experiment: Toxicity in streptozotocin-induced diabetic rat model assessed as elevation in hepatic triglyceride level up to dose equivalent to 136 mg of free base/kg, po relative to control; format: organism-based; details: in vivo
# Rattus norvegicus [14] = organism: Rattus norvegicus; experiment: Hypoglycemic activity in streptozotocin-induced diabetic rat model; format: functional, organism-based
# Rattus norvegicus [15] = organism: Rattus norvegicus; experiment: Hypoglycemic activity in normal fed rat; format: functional, organism-based
# Kidney = experiment: Inhibition of glucose production from lactate in rat kidney cortex at 10^-4 M; format: functional, tissue-based
# Rattus norvegicus [16] = experiment: Hypoglycemic activity in 48 hrs-fasted rat assessed as change in blood glucose level at dose equivalent to 34 mg of free base/kg, po measured at 5 hrs relative to control; format: functional, organism-based
Structure (SMILES),Activity (Rattus norvegicus [1]) [%],Activity (Rattus norvegicus [2]) [%],Activity (Rattus norvegicus [3]) [%],Activity (Rattus norvegicus [4]) [%],Activity (Rattus norvegicus [5]) [%],further results
O.[Cl-].c1csc(-c2c[n+]3ccccc3s2)c1,1,-2,-13,-13,0,–
CSc1ccc(-c2c[n+]3ccccc3s2)cc1.O.[O-][Cl+3]([O-])([O-])[O-],-9,-11,-14,-6,-2,–
Nc1cccc(-c2c[n+]3ccccc3s2)c1.[O-][Cl+3]([O-])([O-])[O-],-10,-16,-8,-7,-8,–
O.O=S(=O)([O-])O.c1ccc(-c2c[n+]3ccccc3s2)cc1,–,–,–,–,–,Activity (Rattus norvegicus [6]): -6%; Activity (Rattus norvegicus [7]): -16%; Activity (Rattus norvegicus [8]): -21%; Activity (Rattus norvegicus [9]): -39%; Activity (Rattus norvegicus [10]): -30%
CC(C)Oc1cccc(-c2c[n+]3ccccc3s2)c1.[O-][Cl+3]([O-])([O-])[O-],4,-1,-4,9,-10,–
Cc1ccc[n+]2cc(-c3ccccc3)sc12.O.[O-][Cl+3]([O-])([O-])[O-],-17,-42,-51,-59,-50,Activity (Rattus norvegicus [11]): 200%
O.[Cl-].c1ccc(-c2c[n+]3ccccc3s2)cc1,–,–,–,–,–,Activity (Rattus norvegicus [6]): -4%; Activity (Rattus norvegicus [7]): -13%; Activity (Rattus norvegicus [8]): -31%; Activity (Rattus norvegicus [9]): -39%; Activity (Rattus norvegicus [10]): -39%
Brc1ccc(-c2c[n+]3ccccc3s2)cc1.O.O=S(=O)([O-])O,9,-4,-1,-5,1,–
[O-][Cl+3]([O-])([O-])[O-].c1ccc(-c2c[n+]3ccccc3s2)cc1,–,–,–,–,–,Activity (Rattus norvegicus [6]): -4%; Activity (Rattus norvegicus [7]): -8%; Activity (Rattus norvegicus [8]): -17%; Activity (Rattus norvegicus [9]): -33%; Activity (Rattus norvegicus [10]): -28%; Activity (Rattus norvegicus [11]): 200%; Activity (Rattus norvegicus [12]): Toxic; Activity (Rattus norvegicus [13]): Non-toxic
c1ccc(-c2c[n+]3ccccc3s2)cc1,–,–,–,–,–,Activity (Rattus norvegicus [14]): Active; Activity (Rattus norvegicus [15]): Active; Activity (Kidney): Active; Activity (Rattus norvegicus [16]): Active
O.[Cl-].c1ccc(-c2ccc(-c3c[n+]4ccccc4s3)cc2)cc1,-7,-12,-12,13,3,–
CN(C)/C=N/c1cccc(-c2c[n+]3ccccc3s2)c1.O.[O-][Cl+3]([O-])([O-])[O-],1,0,-1,-1,22,–
Cc1cc[n+]2cc(-c3ccccc3)sc2c1.[O-][Cl+3]([O-])([O-])[O-],14,-4,-28,-29,-22,–
O=S(=O)([O-])c1ccc(-c2c[n+]3ccccc3s2)s1,-6,5,-5,-6,6,–
Nc1ccc(-c2c[n+]3ccccc3s2)cc1.O.[O-][Cl+3]([O-])([O-])[O-],-8,1,-20,-7,-14,–
O=S(=O)([O-])c1ccc(-c2ccc(-c3c[n+]4ccccc4s3)cc2)cc1,3,3,13,2,4,–
Cc1ccc2sc(-c3ccccc3)c[n+]2c1.[O-][Cl+3]([O-])([O-])[O-],19,-30,-26,-27,-16,–
[O-][Cl+3]([O-])([O-])[O-].c1cc[n+]2ccsc2c1,-14,-20,-15,-13,-12,–
O.[O-][Cl+3]([O-])([O-])[O-].c1ccc(-c2csc3cccc[n+]23)cc1,-12,-16,-28,-12,-19,–
CC(=O)Nc1cccc(-c2c[n+]3ccccc3s2)c1.[O-][Cl+3]([O-])([O-])[O-],12,8,3,9,4,–
O=C([O-])C(F)(F)F.c1ccc(-c2c[n+]3ccccc3s2)cc1,-7,-9,–,–,–,Activity (Rattus norvegicus [8]): -15%; Activity (Rattus norvegicus [9]): -18%; Activity (Rattus norvegicus [10]): -24%
O.O=S(=O)([O-])O.O=[N+]([O-])c1cccc(-c2c[n+]3ccccc3s2)c1,-10,-7,-6,-6,0,–
CS(=O)(=O)c1ccc(-c2c[n+]3ccccc3s2)cc1.[O-][Cl+3]([O-])([O-])[O-],3,-8,-6,-6,-2,–
